Values joined by “and” are separate entries in the source; they are usually repeats but may differ in a detail not shown here. Identical values can stand only once.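 These data come from cells grown in 96-well plates and exposed to compound for 48 hours at five concentrations. The concentration for 50% growth inhibition is given as GI50. TGI marks complete inhibition of growth.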
What was measured:
Assay in all cases: DTP human tumour cell line panel, 48 h
COLO 205 colon = system: COLO 205 colon
HOP-62 NSCLC = system: HOP-62 NSCLC
HOP-92 NSCLC = system: HOP-92 NSCLC
IGROV1 ovarian = system: IGROV1 ovarian
LOX IMVI melanoma = system: LOX IMVI melanoma
MOLT-4 leukemia = system: MOLT-4 leukemia
NCI-H23 lung = system: NCI-H23 lung
OVCAR-4 ovarian = system: OVCAR-4 ovarian
OVCAR-8 ovarian = system: OVCAR-8 ovarian
SN12C renal = system: SN12C renal

SMILES	GI50 (COLO 205 colon)	TGI (COLO 205 colon)	GI50 (HOP-62 NSCLC)	TGI (HOP-62 NSCLC)	GI50 (HOP-92 NSCLC)	TGI (HOP-92 NSCLC)	GI50 (IGROV1 ovarian)	TGI (IGROV1 ovarian)	GI50 (LOX IMVI melanoma)	TGI (LOX IMVI melanoma)	GI50 (MOLT-4 leukemia)	TGI (MOLT-4 leukemia)	GI50 (NCI-H23 lung)	TGI (NCI-H23 lung)	GI50 (OVCAR-4 ovarian)	TGI (OVCAR-4 ovarian)	GI50 (OVCAR-8 ovarian)	TGI (OVCAR-8 ovarian)	GI50 (SN12C renal)	TGI (SN12C renal)
Cc1cc(O)cc(C)c1/C=C/c1cncc(C(=O)N(C)C)c1	> 25 µM	> 25 µM	> 25 µM	> 25 µM	> 25 µM	> 25 µM	> 25 µM	> 25 µM	> 25 µM	> 25 µM	> 25 µM	> 25 µM	> 25 µM	> 25 µM	> 25 µM	> 25 µM	> 25 µM	> 25 µM	> 25 µM	> 25 µM
Cn1c(=O)c2c(nc3n2CCC(=O)N3)n(C)c1=O		> 100 µM		> 100 µM		> 100 µM		> 100 µM		> 100 µM		> 100 µM		> 100 µM		> 100 µM		> 100 µM		> 100 µM
CCCCS(=N)(=O)CC[C@H](N)C(=O)O (stereo partly specified)	> 10000 µM	> 10000 µM	> 7620 µM	> 10000 µM	945 µM		336 µM	4980 µM and 6370 µM	2.12 µM		1540 µM	3810 µM and > 10000 µM	> 10000 µM	5000 µM and > 10000 µM	13.4 µM			2920 µM and > 2770 µM	> 10000 µM	> 10000 µM
O=C1Cc2c(-c3ccccc3)cc(-c3cccc(Cl)c3)nc2-c2ccccc2N1		> 58.3 µM		4.12 µM		5.42 µM		6.45 µM		7.28 µM		> 90.4 µM		16.8 µM		5.71 µM		5.4 µM		16.2 µM
CC(SC1=CC(=O)c2c(O)ccc(O)c2C1=O)C(=O)O (stereo unspecified)		> 60.3 µM		> 100 µM		> 83.1 µM		> 68.6 µM		> 57.7 µM		60.7 µM		> 90.4 µM		35 µM		> 89.3 µM		> 77.7 µM
C=C1C(=O)O[C@H]2[C@H]1CC/C(COC(=O)c1ccc(C(=O)O)s1)=C\CC[C@@]1(C)O[C@@H]21	2.01 µM	3.92 µM	6.96 µM	20.2 µM	1.61 µM	3.45 µM	2.16 µM	5.82 µM	1.49 µM	3.08 µM	2.38 µM	7.2 µM	3.34 µM	11.8 µM	3.18 µM	10.5 µM	2.69 µM	7.84 µM	1.74 µM	3.5 µM
Cc1cc2occ(C)c(=O)c2c2c1OC(C)(C)S2		> 100 µM		> 100 µM		> 100 µM		> 100 µM		> 100 µM		> 100 µM		> 100 µM		> 100 µM		> 100 µM		> 100 µM
CCOC(=O)/C=C(/CN1C(=O)c2ccccc2C1=O)c1ccccc1		> 100 µM		> 100 µM		> 100 µM		> 100 µM		> 100 µM		> 100 µM		> 100 µM		> 100 µM		> 100 µM		> 100 µM
CN(C)CN1C(=O)S/C(=C2\C(=O)N(CN(C)C)c3ccccc32)C1=O		> 100 µM		> 100 µM		> 100 µM		> 100 µM		73.2 µM		1.93 µM		49.2 µM		> 100 µM		> 100 µM		69.4 µM
N#C/C(=C(\O)C(=O)O)c1ccc(-c2cccc3ccccc23)cc1		> 100 µM		> 100 µM		> 100 µM		> 100 µM		> 100 µM		12.2 µM		> 100 µM		> 100 µM		> 100 µM		> 100 µM
CCc1cccc(C)c1NC(=O)CC1Sc2ccccc2NC1=O (stereo unspecified)		> 100 µM		61.3 µM		99.7 µM		> 100 µM		> 100 µM		> 100 µM		> 100 µM		> 100 µM		> 100 µM		> 100 µM
OCC1OC(N2C=C(c3nc4ccccc4s3)C3C=CC=CC32)C(O)C1O (stereo unspecified)	14.1 µM	49.6 µM	16 µM	> 50 µM	6.62 µM	20.5 µM	14.8 µM	> 50 µM	7.1 µM	18 µM	> 50 µM	> 50 µM	8.89 µM	28.7 µM	14.3 µM	> 50 µM	11.4 µM	29.5 µM	11.1 µM	34.3 µM
c1cc(-c2sc(-c3ccncc3)c(-c3ccncc3)c2-c2ccncc2)ccn1		27.4 µM		78.1 µM		29.6 µM		> 100 µM		30.8 µM		> 100 µM		31.9 µM		> 100 µM		> 100 µM		46.5 µM
CCCCCCCCCCCC(=O)C1=C(O)C(O)CCC1=O (stereo unspecified)		28.9 µM		40.4 µM		48.3 µM		82.6 µM		28.2 µM		60.3 µM		20 µM		90.8 µM		36.6 µM		78.3 µM
CCCN(CCCCC(NC(C)=O)C(=O)NCc1ccccc1)C(=O)NC (stereo unspecified)		> 100 µM		> 100 µM		> 100 µM		> 100 µM		> 100 µM		> 100 µM		> 100 µM		> 100 µM		> 100 µM		> 100 µM
CC1(C)OC2C(=O)OC(COCc3ccccc3)C2O1 (stereo unspecified)		> 100 µM		> 100 µM		> 100 µM		> 100 µM		> 100 µM		> 100 µM		> 100 µM		> 100 µM		> 100 µM		> 100 µM
Cc1c2ncccc2c(C)c2c1[nH]c1ccccc12		26.9 µM		24.1 µM		25.3 µM		29.4 µM		20.8 µM		6.5 µM		26 µM		43.4 µM		27.8 µM		26 µM
Nc1ncnc2c1ncn2C1OC(C(=O)O)C(O)C1O (stereo unspecified)		> 100 µM		> 100 µM		> 100 µM		> 100 µM		> 100 µM		> 100 µM		> 100 µM		> 100 µM		> 100 µM		> 100 µM
[Cl][Sn]([c]1ccccc1)[c]1ccccc1	7.45 µM	38.2 µM	22.9 µM	40.7 µM	3.61 µM	8.69 µM	17.7 µM	43.7 µM	3.81 µM	13.5 µM	2.91 µM	28.9 µM	5.19 µM	18.1 µM	15.2 µM	29.8 µM	11.5 µM	17.2 µM	9.18 µM	22.9 µM

Reference: PubChem BioAssay (NCI)
